Patent US8741944B2, “Anti-infective agents against intracellular pathogens” (priority 2007, dated 2014)

Key:
[1] = tested on: HOP-62 (Non-Small Cell Lung Cancer); assay: NCI DTP tumor cell line screen (SRB), HOP-62
Method: (§1) For a typical screening experiment, cells are inoculated into 96 well microtiter plates in 100 μL at plating densities ranging from 5,000 to 40,000 cells/well depending on the doubling time of individual cell lines. After cell inoculation, the microtiter plates are incubated at 37° C., 5% CO2, 95% air and 100% relative humidity for 24 h prior to addition of experimental drugs.
(§2) After 24 h, two plates of each cell line are fixed in situ with TCA, to represent a measurement of the cell population for each cell line at the time of drug addition (Tz). Experimental drugs are solubilized in dimethyl sulfoxide at 400-fold the desired final maximum test concentration and stored frozen prior to use. At the time of drug addition, an aliquot of frozen concentrate is thawed and diluted to twice the desired final maximum test concentration with complete medium containing 50 μg/ml gentamicin. Additional four, 10-fold or ½ log serial dilutions are made to provide a total of five drug concentrations plus control. Aliquots of 100 μl of these different drug dilutions are added to the appropriate microtiter wells already containing 100 μl of medium, resulting in the required final drug concentrations.
(§3) Following drug addition, the plates are incubated for an additional 48 h at 37° C., 5% CO2, 95% air, and 100% relative humidity. For adherent cells, the assay is terminated by the addition of cold TCA. Cells are fixed in situ by the gentle addition of 50 μl of cold 50% (w/v) TCA (final concentration, 10% TCA) and incubated for 60 minutes at 4° C. The supernatant is discarded, and the plates are washed five times with tap water and air dried. Sulforhodamine B (SRB) solution (1001) at 0.4% (w/v) in 1% acetic acid is added to each well, and plates are incubated for 10 minutes at room temperature. After staining, unbound dye is removed by washing five times with 1% acetic acid and the plates are air dried. Bound stain is subsequently solubilized with 10 mM trizma base, and the absorbance is read on an automated plate reader at a wavelength of 515 nm. For suspension cells, the methodology is the same except that the assay is terminated by fixing settled cells at the bottom of the wells by gently adding 50 μl of 80% TCA (final concentration, 16% TCA). Using the seven absorbance measurements [time zero, (Tz), control growth, (C), and test growth in the presence of drug at the five concentration levels (Ti)], the percentage growth is calculated at each of the drug concentrations levels. Percentage growth inhibition is calculated as: [(Ti−Tz)/(C−Tz)]×100 for concentrations for which Ti>/=Tz [(Ti−Tz)/Tz]×100 for concentrations for which Ti<Tz
(§4) Three dose response parameters are calculated for each experimental agent. […] The drug concentration resulting in total growth inhibition (TGI) is calculated from Ti=Tz. […] Values are calculated for each of these three parameters if the level of activity is reached; however, if the effect is not reached or is exceeded, the value for that parameter is expressed as greater or less than the maximum or minimum concentration tested.

T-47D (Breast Cancer) = assay: NCI DTP tumor cell line screen (SRB), T-47D
Method: as §1, §2, §3, §4

SK-MEL-28 (Melanoma) = assay: NCI DTP tumor cell line screen (SRB), SK-MEL-28
Method: as §1, §2, §3, §4

UACC-62 (Melanoma) = assay: NCI DTP tumor cell line screen (SRB), UACC-62
Method: as §1, §2, §3, §4

LOX IMVI (Melanoma) = assay: NCI DTP tumor cell line screen (SRB), LOX IMVI
Method: as §1, §2, §3, §4

ACHN (Renal Cancer) = assay: NCI DTP tumor cell line screen (SRB), ACHN
Method: as §1, §2, §3, §4

HCT-15 (Colon Cancer) = assay: NCI DTP tumor cell line screen (SRB), HCT-15
Method: as §1, §2, §3, §4

HS 578T (Breast Cancer) = assay: NCI DTP tumor cell line screen (SRB), HS 578T
Method: as §1, §2, §3, §4

[2] = tested on: HOP-92 (Non-Small Cell Lung Cancer); assay: NCI DTP tumor cell line screen (SRB), HOP-92
Method: as §1, §2, §3, §4

OVCAR-8 (Ovarian Cancer) = assay: NCI DTP tumor cell line screen (SRB), OVCAR-8
Method: as §1, §2, §3, §4

CCRF-CEM (Leukemia) = assay: NCI DTP tumor cell line screen (SRB), CCRF-CEM
Method: as §1, §2, §3, §4

HCT-116 (Colon Cancer) = assay: NCI DTP tumor cell line screen (SRB), HCT-116
Method: as §1, §2, §3, §4

RXF 393 (Renal Cancer) = assay: NCI DTP tumor cell line screen (SRB), RXF 393
Method: as §1, §2, §3, §4

IGROV1 (Ovarian Cancer) = assay: NCI DTP tumor cell line screen (SRB), IGROV1
Method: as §1, §2, §3, §4

M14 (Melanoma) = assay: NCI DTP tumor cell line screen (SRB), M14
Method: as §1, §2, §3, §4

SN12C (Renal Cancer) = assay: NCI DTP tumor cell line screen (SRB), SN12C
Method: as §1, §2, §3, §4

4-[5-(2-Phenanthrenyl)-3-(trifluoromethyl)-1H-pyrazol-1-yl]-phenyl -guanidine [Compound 71]
GI50 [1]: 1.72 µM
Percent Growth ([1]; Log10 Concentration −4.0): −36%
Percent Growth ([1]; Log10 Concentration −5.0): −98%
Percent Growth ([1]; Log10 Concentration −7.0): 97%
Percent Growth ([1]; Log10 Concentration −8.0): 100%
GI50 (T-47D (Breast Cancer)): < 0.01 µM
TGI (T-47D (Breast Cancer)): 1.98E−06
Percent Growth (T-47D (Breast Cancer); Log10 Concentration −4.0): −53%
Percent Growth (T-47D (Breast Cancer); Log10 Concentration −5.0): −76%
Percent Growth (T-47D (Breast Cancer); Log10 Concentration −6.0): 32%
Percent Growth (T-47D (Breast Cancer); Log10 Concentration −7.0): 47%
Percent Growth (T-47D (Breast Cancer); Log10 Concentration −8.0): 36%
GI50 (SK-MEL-28 (Melanoma)): 1.56 µM
TGI (SK-MEL-28 (Melanoma)): 2.89E−06
Percent Growth (SK-MEL-28 (Melanoma); Log10 Concentration −4.0): −53%
Percent Growth (SK-MEL-28 (Melanoma); Log10 Concentration −5.0): −100%
Percent Growth (SK-MEL-28 (Melanoma); Log10 Concentration −7.0): 90%
GI50 (UACC-62 (Melanoma)): 1.44 µM
TGI (UACC-62 (Melanoma)): 2.74E−06
Percent Growth (UACC-62 (Melanoma); Log10 Concentration −4.0): −60%
Percent Growth (UACC-62 (Melanoma); Log10 Concentration −5.0): −100%
Percent Growth (UACC-62 (Melanoma); Log10 Concentration −6.0): 78%
Percent Growth (UACC-62 (Melanoma); Log10 Concentration −7.0): 83%
GI50 (LOX IMVI (Melanoma)): 1.34 µM
TGI (LOX IMVI (Melanoma)): 2.65E−06
Percent Growth (LOX IMVI (Melanoma); Log10 Concentration −4.0): −53%
Percent Growth (LOX IMVI (Melanoma); Log10 Concentration −5.0): −98%
Percent Growth (LOX IMVI (Melanoma); Log10 Concentration −6.0): 72%
Percent Growth (LOX IMVI (Melanoma); Log10 Concentration −8.0): 73%
GI50 (ACHN (Renal Cancer)): 1.67 µM
TGI (ACHN (Renal Cancer)): 3.15E−06
Percent Growth (ACHN (Renal Cancer); Log10 Concentration −4.0): −22%
Percent Growth (ACHN (Renal Cancer); Log10 Concentration −5.0): −91%
Percent Growth (ACHN (Renal Cancer); Log10 Concentration −6.0): 90%
Percent Growth (ACHN (Renal Cancer); Log10 Concentration −8.0): 80%
GI50 (HCT-15 (Colon Cancer); HCT-15): 1.54 µM
TGI (HCT-15 (Colon Cancer); HCT-15): 2.87E−06
Percent Growth (HCT-15 (Colon Cancer); HCT-15, Log10 Concentration −4.0): −71%
Percent Growth (HCT-15 (Colon Cancer); HCT-15, Log10 Concentration −5.0): −100%
Percent Growth (HCT-15 (Colon Cancer); HCT-15, Log10 Concentration −8.0): 64%
GI50 (HS 578T (Breast Cancer)): 1.86 µM
TGI (HS 578T (Breast Cancer)): 3.78E−06
Percent Growth (HS 578T (Breast Cancer); Log10 Concentration −4.0): −38%
Percent Growth (HS 578T (Breast Cancer); Log10 Concentration −5.0): −69%
Percent Growth (HS 578T (Breast Cancer); Log10 Concentration −6.0): 94%
Percent Growth (HS 578T (Breast Cancer); Log10 Concentration −7.0): 100%
GI50 [2]: 1.01 µM
TGI [2]: 2.26E−06
Percent Growth ([2]; Log10 Concentration −4.0): −28%
Percent Growth ([2]; Log10 Concentration −5.0): −92%
Percent Growth ([2]; Log10 Concentration −6.0): 50%
Percent Growth ([2]; Log10 Concentration −7.0): 82%
GI50 (OVCAR-8 (Ovarian Cancer); OVCAR 8): 1.69 µM
TGI (OVCAR-8 (Ovarian Cancer); OVCAR 8): 3.05E−06
Percent Growth (OVCAR-8 (Ovarian Cancer); OVCAR 8, Log10 Concentration −4.0): −69%
Percent Growth (OVCAR-8 (Ovarian Cancer); OVCAR 8, Log10 Concentration −5.0): −100%
Percent Growth (OVCAR-8 (Ovarian Cancer); OVCAR 8, Log10 Concentration −6.0): 94%
Percent Growth (OVCAR-8 (Ovarian Cancer); OVCAR 8, Log10 Concentration −8.0): 92%
GI50 (CCRF-CEM (Leukemia)): 1.23 µM
TGI (CCRF-CEM (Leukemia)): 2.48E−06
Percent Growth (CCRF-CEM (Leukemia); Log10 Concentration −4.0): −53%
Percent Growth (CCRF-CEM (Leukemia); Log10 Concentration −5.0): −99%
Percent Growth (CCRF-CEM (Leukemia); Log10 Concentration −6.0): 65%
Percent Growth (CCRF-CEM (Leukemia); Log10 Concentration −7.0): 79%
Percent Growth (CCRF-CEM (Leukemia); Log10 Concentration −8.0): 78%
GI50 (HCT-116 (Colon Cancer)): 1.29 µM
TGI (HCT-116 (Colon Cancer)): 2.55E−06
Percent Growth (HCT-116 (Colon Cancer); Log10 Concentration −4.0): −49%
Percent Growth (HCT-116 (Colon Cancer); Log10 Concentration −5.0): −100%
Percent Growth (HCT-116 (Colon Cancer); Log10 Concentration −6.0): 68%
Percent Growth (HCT-116 (Colon Cancer); Log10 Concentration −8.0): 82%
TGI (RXF 393 (Renal Cancer); RXF 383): 2.91E−06
Percent Growth (RXF 393 (Renal Cancer); RXF 383, Log10 Concentration −4.0): −4%
Percent Growth (RXF 393 (Renal Cancer); RXF 383, Log10 Concentration −6.0): 53%
Percent Growth (RXF 393 (Renal Cancer); RXF 383, Log10 Concentration −7.0): 53%
Percent Growth (RXF 393 (Renal Cancer); RXF 383, Log10 Concentration −8.0): 42%
GI50 (IGROV1 (Ovarian Cancer)): 1.07 µM
TGI (IGROV1 (Ovarian Cancer)): 2.26E−06
Percent Growth (IGROV1 (Ovarian Cancer); Log10 Concentration −4.0): −53%
Percent Growth (IGROV1 (Ovarian Cancer); Log10 Concentration −5.0): −100%
Percent Growth (IGROV1 (Ovarian Cancer); Log10 Concentration −6.0): 55%
Percent Growth (IGROV1 (Ovarian Cancer); Log10 Concentration −7.0): 83%
Percent Growth (IGROV1 (Ovarian Cancer); Log10 Concentration −8.0): 85%
GI50 (M14 (Melanoma)): 1.48 µM
TGI (M14 (Melanoma)): 2.80E−06
Percent Growth (M14 (Melanoma); Log10 Concentration −4.0): −33%
Percent Growth (M14 (Melanoma); Log10 Concentration −5.0): −100%
Percent Growth (M14 (Melanoma); Log10 Concentration −7.0): 82%
GI50 (SN12C (Renal Cancer)): 1.57 µM
TGI (SN12C (Renal Cancer)): 2.91E−06
Percent Growth (SN12C (Renal Cancer); Log10 Concentration −4.0): −62%
Percent Growth (SN12C (Renal Cancer); Log10 Concentration −5.0): −100%
Percent Growth (SN12C (Renal Cancer); Log10 Concentration −7.0): 78%
